Numbers after ± are expanded uncertainties.
Settings: Liquid, Vibrating tube method

CC(C)OC(C)C [diisopropyl ether] gave a mass density (283.15 K, 100 kPa) of 733.83 ± 0.3 kg/m3, a mass density (283.15 K, 5000 kPa) of 739.6 ± 0.33 kg/m3 and a mass density (283.15 K, 10000 kPa) of 744.9 ± 0.37 kg/m3. It also gave a mass density (283.15 K, 15000 kPa) of 749.85 ± 0.4 kg/m3, a mass density (283.15 K, 20000 kPa) of 754.49 ± 0.44 kg/m3 and a mass density (283.15 K, 25000 kPa) of 758.89 ± 0.48 kg/m3. It also gave a mass density (283.15 K, 30000 kPa) of 763.08 ± 0.51 kg/m3, a mass density (283.15 K, 35000 kPa) of 767.08 ± 0.55 kg/m3 and a mass density (283.15 K, 40000 kPa) of 770.91 ± 0.59 kg/m3. It also gave a mass density (283.15 K, 45000 kPa) of 774.59 ± 0.63 kg/m3, a mass density (283.15 K, 50000 kPa) of 778.13 ± 0.67 kg/m3 and a mass density (283.15 K, 55000 kPa) of 781.56 ± 0.7 kg/m3. For the same molecule, the mass density (283.15 K, 60000 kPa) was 784.88 ± 0.74 kg/m3, the mass density (283.15 K, 65000 kPa) was 788.07 ± 0.77 kg/m3 and the mass density (288.15 K, 100 kPa) was 728.69 ± 0.3 kg/m3. The mass density (288.15 K, 5000 kPa) was 734.61 ± 0.33 kg/m3, the mass density (288.15 K, 10000 kPa) was 740.14 ± 0.37 kg/m3 and the mass density (288.15 K, 15000 kPa) was 745.3 ± 0.41 kg/m3. For the same molecule, the mass density (288.15 K, 20000 kPa) was 750.09 ± 0.44 kg/m3, the mass density (288.15 K, 25000 kPa) was 754.61 ± 0.48 kg/m3 and the mass density (288.15 K, 30000 kPa) was 758.9 ± 0.52 kg/m3. For the same molecule, the mass density (288.15 K, 35000 kPa) was 763.01 ± 0.56 kg/m3, the mass density (288.15 K, 40000 kPa) was 766.92 ± 0.6 kg/m3 and the mass density (288.15 K, 45000 kPa) was 770.68 ± 0.64 kg/m3. The mass density (288.15 K, 50000 kPa) was 774.31 ± 0.67 kg/m3, the mass density (288.15 K, 55000 kPa) was 777.77 ± 0.71 kg/m3 and the mass density (288.15 K, 60000 kPa) was 781.16 ± 0.75 kg/m3. The mass density (288.15 K, 65000 kPa) was 784.42 ± 0.78 kg/m3, the mass density (293.15 K, 100 kPa) was 723.51 ± 0.3 kg/m3 and the mass density (293.15 K, 5000 kPa) was 729.62 ± 0.34 kg/m3. The mass density (293.15 K, 10000 kPa) was 735.37 ± 0.37 kg/m3, the mass density (293.15 K, 15000 kPa) was 740.69 ± 0.41 kg/m3 and the mass density (293.15 K, 20000 kPa) was 745.62 ± 0.45 kg/m3. It also gave a mass density (293.15 K, 25000 kPa) of 750.29 ± 0.48 kg/m3, a mass density (293.15 K, 30000 kPa) of 754.71 ± 0.52 kg/m3 and a mass density (293.15 K, 35000 kPa) of 758.91 ± 0.57 kg/m3. It also gave a mass density (293.15 K, 40000 kPa) of 762.93 ± 0.61 kg/m3, a mass density (293.15 K, 45000 kPa) of 766.78 ± 0.64 kg/m3 and a mass density (293.15 K, 50000 kPa) of 770.48 ± 0.68 kg/m3. For the same molecule, the mass density (293.15 K, 55000 kPa) was 774.06 ± 0.72 kg/m3, the mass density (293.15 K, 60000 kPa) was 777.49 ± 0.75 kg/m3 and the mass density (293.15 K, 65000 kPa) was 780.83 ± 0.79 kg/m3. It also gave a mass density (298.15 K, 100 kPa) of 718.29 ± 0.3 kg/m3, a mass density (298.15 K, 5000 kPa) of 724.67 ± 0.34 kg/m3 and a mass density (298.15 K, 10000 kPa) of 730.59 ± 0.37 kg/m3. The mass density (298.15 K, 15000 kPa) was 736.05 ± 0.41 kg/m3, the mass density (298.15 K, 20000 kPa) was 741.13 ± 0.45 kg/m3 and the mass density (298.15 K, 25000 kPa) was 745.92 ± 0.49 kg/m3. The mass density (298.15 K, 30000 kPa) was 750.46 ± 0.53 kg/m3, the mass density (298.15 K, 35000 kPa) was 754.77 ± 0.57 kg/m3 and the mass density (298.15 K, 40000 kPa) was 758.89 ± 0.61 kg/m3. It also gave a mass density (298.15 K, 45000 kPa) of 762.82 ± 0.65 kg/m3, a mass density (298.15 K, 50000 kPa) of 766.6 ± 0.69 kg/m3 and a mass density (298.15 K, 55000 kPa) of 770.25 ± 0.73 kg/m3. For the same molecule, the mass density (298.15 K, 60000 kPa) was 773.75 ± 0.76 kg/m3, the mass density (298.15 K, 65000 kPa) was 777.14 ± 0.8 kg/m3 and the mass density (303.15 K, 100 kPa) was 713.03 ± 0.3 kg/m3. The mass density (303.15 K, 5000 kPa) was 719.61 ± 0.34 kg/m3, the mass density (303.15 K, 10000 kPa) was 725.79 ± 0.38 kg/m3 and the mass density (303.15 K, 15000 kPa) was 731.48 ± 0.41 kg/m3. For the same molecule, the mass density (303.15 K, 20000 kPa) was 736.81 ± 0.45 kg/m3, the mass density (303.15 K, 25000 kPa) was 741.76 ± 0.49 kg/m3 and the mass density (303.15 K, 30000 kPa) was 746.43 ± 0.53 kg/m3. For the same molecule, the mass density (303.15 K, 35000 kPa) was 750.85 ± 0.58 kg/m3, the mass density (303.15 K, 40000 kPa) was 755.09 ± 0.62 kg/m3 and the mass density (303.15 K, 45000 kPa) was 759.12 ± 0.66 kg/m3. For the same molecule, the mass density (303.15 K, 50000 kPa) was 763 ± 0.7 kg/m3, the mass density (303.15 K, 55000 kPa) was 766.7 ± 0.73 kg/m3 and the mass density (303.15 K, 60000 kPa) was 770.24 ± 0.77 kg/m3. It also gave a mass density (303.15 K, 65000 kPa) of 773.7 ± 0.81 kg/m3, a mass density (308.15 K, 100 kPa) of 707.73 ± 0.3 kg/m3 and a mass density (308.15 K, 5000 kPa) of 714.61 ± 0.34 kg/m3. The mass density (308.15 K, 10000 kPa) was 720.99 ± 0.38 kg/m3, the mass density (308.15 K, 15000 kPa) was 726.79 ± 0.42 kg/m3 and the mass density (308.15 K, 20000 kPa) was 732.2 ± 0.46 kg/m3. For the same molecule, the mass density (308.15 K, 25000 kPa) was 737.29 ± 0.49 kg/m3 and the mass density (308.15 K, 30000 kPa) was 742.07 ± 0.54 kg/m3.

From the NIST ThermoML archive (doi:10.1016/j.fluid.2016.02.009)
